{
  "source": "ChEMBL document CHEMBL5385880",
  "about": "“Design, synthesis and evaluation of the novel chalcone derivatives with 2,2-dimethylbenzopyran as HIF-1 inhibitors that possess anti-angiogenic potential” (Eur J Med Chem, 2023)",
  "key": {"T47D": {"system": "T47D", "assay": "Cytotoxicity activity against human T47D cells", "format": "functional, cell-based"}, "[1]": {"assay": "AUC (0 to infinity) in Sprague-Dawley rat at 20 mg/kg, iv administered as single dose measured upto 6 hrs by HPLC analysis", "format": "ADME, organism-based", "design": "time < 6 hrs, dose 20 mg/kg, route iv", "conditions": "in vivo"}, "[2]": {"assay": "Clearance in Sprague-Dawley rat at 20 mg/kg, iv administered as single dose measured upto 6 hrs by HPLC analysis", "format": "ADME, organism-based", "conditions": "in vivo"}, "Mus musculus [3]": {"system": "Mus musculus", "assay": "Anti-angiogenesis activity in VEGF stimulated C57/bl6 mouse implanted with matrigel assessed as appearance of hemoglobin content in matrigel plug at 1.25 to 20 uM measured after 10 days", "format": "functional, organism-based", "conditions": "dose 1.25-20 µM, time 10.0 day"}, "A549 [4]": {"system": "A549", "assay": "Inhibition of cell invasion in human A549 cells at 0 to 4 uM measured after 24 hrs by calcein-AM staining transwell invasion assay", "format": "functional, cell-based", "conditions": "dose 0-4 µM"}, "[5]": {"assay": "Cytotoxicity against human HUVEC cells assessed as reduction in cell growth incubated for 48 hrs by CCK-8 method", "format": "toxicity, cell-based"}, "A549 [6]": {"system": "A549", "assay": "Inhibition of VEGF induced cell invasion in human A549 cells measured after 24 hrs by calcein-AM staining transwell invasion assay", "format": "functional, cell-based", "conditions": "dose 0-4 µM"}, "[7]": {"assay": "Apparent volume of distribution in Sprague-Dawley rat at 20 mg/kg, iv administered as single dose measured upto 6 hrs by HPLC analysis", "format": "ADME, organism-based", "conditions": "in vivo, read-out: Vz"}, "[8]": {"assay": "Metabolic stability in Sprague-Dawley rat liver microsomes assessed as half life at 100 ug/ml measured upto 120 mins in presence of NADPH generating system by HPLC analysis", "format": "ADME, Microsome", "conditions": "dose 100 µg/ml"}, "[9]": {"assay": "AUC (0 to t) in Sprague-Dawley rat at 20 mg/kg, iv administered as single dose measured upto 6 hrs by HPLC analysis", "format": "ADME, organism-based", "design": "dose 20 mg/kg, time < 6 hrs, route iv", "conditions": "in vivo"}, "[10]": {"assay": "Half life in Sprague-Dawley rat at 20 mg/kg, iv administered as single dose measured upto 6 hrs by HPLC analysis", "format": "ADME, organism-based", "conditions": "in vivo"}, "[11]": {"assay": "Subchronic toxicity in Kunming mouse assessed as effect on body weight at 50 mg/kg administered via oral gavage measured upto 10 days", "format": "organism-based", "conditions": "in vivo, 240 h, time < 10 day"}, "[12]": {"assay": "Subchronic toxicity in Kunming mouse assessed as effect on apparent behavior problem at 50 mg/kg administered via oral gavage measured upto 10 days", "format": "organism-based", "conditions": "in vivo, 240 h, time < 10 day"}, "[13]": {"assay": "Subchronic toxicity in Kunming mouse assessed as side effects at 50 mg/kg administered via oral gavage measured upto 10 days", "format": "organism-based", "conditions": "in vivo, 240 h, time < 10 day"}, "[14]": {"assay": "Tmax in Sprague-Dawley rat at 20 mg/kg, iv administered as single dose measured upto 6 hrs by HPLC analysis", "format": "ADME, organism-based", "conditions": "in vivo"}, "[15]": {"assay": "Plasma protein binding in Sprague-Dawley rat assessed as free fraction by equilibrium dialysis analysis", "format": "ADME, cell-free"}, "[16]": {"assay": "Metabolic stability in Sprague-Dawley rat liver microsomes at 100 ug/ml measured after 30 mins in presence of NADPH generating system by HPLC analysis", "format": "ADME, Microsome", "conditions": "at 100 µg/mL, read-out: Stability"}, "Mus musculus [17]": {"organism": "Mus musculus", "assay": "Anti-angiogenesis activity in VEGF stimulated C57/bl6 mouse assessed as formation of new blood vessels at 20 uM measured after 10 days", "format": "functional, organism-based", "conditions": "time 10.0 day"}, "A549 [18]": {"system": "A549", "assay": "Cytotoxicity against human A549 cells assessed as reduction in cell growth incubated for 48 hrs by CCK-8 method", "format": "functional, cell-based"}, "A549 [19]": {"system": "A549", "assay": "Cytotoxicity against human A549 cells assessed as reduction in cell growth at 4 uM incubated for 48 hrs by CCK-8 method", "format": "functional, cell-based"}, "Mus musculus [20]": {"organism": "Mus musculus", "assay": "Anti-angiogenesis activity in VEGF stimulated C57/bl6 mouse assessed as decrease in number of blood vessels at 1.25 to 20 uM measured after 10 days", "format": "functional, organism-based", "conditions": "dose 1.25-20 µM, time 10.0 day"}, "[21]": {"assay": "Subchronic toxicity in Kunming mouse assessed as drug tolerance at 50 mg/kg administered via oral gavage measured upto 10 days", "format": "organism-based", "conditions": "in vivo, 240 h, time < 10 day"}, "[22]": {"assay": "Metabolic stability in Sprague-Dawley rat liver microsomes at 100 ug/ml measured after 120 mins in presence of NADPH generating system by HPLC analysis", "format": "ADME, Microsome", "conditions": "at 100 µg/mL, read-out: Stability"}, "[23]": {"assay": "Metabolic stability in Sprague-Dawley rat liver microsomes at 100 ug/ml measured after 10 mins in presence of NADPH generating system by HPLC analysis", "format": "ADME, Microsome", "conditions": "at 100 µg/mL, read-out: Stability"}, "[24]": {"assay": "Subchronic toxicity in Kunming mouse assessed as adverse events at 50 mg/kg administered via oral gavage measured upto 10 days", "format": "organism-based", "conditions": "in vivo, 240 h, time < 10 day"}, "[25]": {"assay": "Metabolic stability in Sprague-Dawley rat liver microsomes at 100 ug/ml measured after 60 mins in presence of NADPH generating system by HPLC analysis", "format": "ADME, Microsome", "conditions": "at 100 µg/mL, read-out: Stability"}, "HUVEC [26]": {"system": "HUVEC", "assay": "Cytotoxicity against human HUVEC cells assessed as reduction in cell growth at 10 uM incubated for 48 hrs by CCK-8 method", "format": "toxicity, cell-based"}, "A549 [27]": {"system": "A549", "assay": "Antimigratory activity in human A549 cells assessed as decrease in cell migration at 4 uM incubated for 24 hrs by wound healing assay", "format": "functional, cell-based"}, "HUVEC [28]": {"system": "HUVEC", "assay": "Antiangiogenic activity in HUVEC assessed as inhibition of VEGF-induced tube formation measured after 12 hrs by matrigel based analysis", "format": "functional, cell-based", "conditions": "Homo sapiens, dose 0-8 µM"}, "[29]": {"assay": "Cmax in Sprague-Dawley rat at 20 mg/kg, iv administered as single dose measured upto 6 hrs by HPLC analysis", "format": "ADME, organism-based", "design": "dose 20 mg/kg, time < 6 hrs, route iv", "conditions": "in vivo"}},
  "note": "Active and inactive are the calls of the source. The rule behind the calls is not given here.",
  "data": [
    {"smiles": "COc1ccc([C@@H](O)[C@@H](C)Oc2ccc([C@H]3O[C@H](c4ccc(O[C@H](C)[C@H](O)c5ccc(OC)c(OC)c5)c(OC)c4)[C@H](C)[C@H]3C)cc2OC)cc1OC", "values": [
      {"measurement": "IC50", "setting": "T47D", "result": 0.003, "unit": "µM"}
    ]},
    {"smiles": "COc1ccc(/C=C/C(=O)c2ccc3c(c2O)C=CC(C)(C)O3)cc1OCCCN1CCCC1", "values": [
      {"measurement": "AUC(0-inf)", "setting": "[1]", "result": 8.88, "unit": "µM·h"},
      {"measurement": "clearance", "setting": "[2]", "result": 39.5, "unit": "mL/min"},
      {"measurement": "Activity", "setting": "Mus musculus [3]", "result": "Active"},
      {"measurement": "inhibition", "setting": "A549 [4]", "result": "Active"},
      {"measurement": "IC50 at 48 h", "setting": "[5]", "result": 19.6, "unit": "µM"},
      {"measurement": "IC20 at 48 h", "setting": "[5]; time 48 hrs", "result": 10.6, "unit": "µM"},
      {"measurement": "inhibition", "setting": "A549 [6]", "result": "Dose-Dependent Effect"},
      {"measurement": "Vd", "setting": "[7]", "result": 5.59, "unit": "L"},
      {"measurement": "half-life at 100 ug/ml", "setting": "[8]", "result": 2.3, "unit": "h"},
      {"measurement": "AUC(0-t) at 6 h", "setting": "[9]", "result": 5.27, "unit": "µM·h"},
      {"measurement": "half-life", "setting": "[10]", "result": 1.64, "unit": "h"},
      {"measurement": "Activity", "setting": "[11]", "result": "Non-Toxic"},
      {"measurement": "Activity", "setting": "[12]", "result": "Non-Toxic"},
      {"measurement": "Activity", "setting": "[13]", "result": "Non-Toxic"},
      {"measurement": "Tmax", "setting": "[14]", "result": 1.98, "unit": "min"},
      {"measurement": "fraction unbound", "setting": "[15]", "result": 0.88},
      {"measurement": "remaining at 0.5 h, 100 ug/ml", "setting": "[16]", "result": 77, "unit": "%"},
      {"measurement": "Activity", "setting": "Mus musculus [17]", "result": "inactive"},
      {"measurement": "IC50", "setting": "A549 [18]; A549, 48 h", "result": 8.88, "unit": "µM"},
      {"measurement": "IC20", "setting": "A549 [18]; A549, time 48 hrs", "result": 4.19, "unit": "µM"},
      {"measurement": "Activity", "setting": "A549 [19]", "result": "inactive"},
      {"measurement": "Activity", "setting": "Mus musculus [20]", "result": "Active"},
      {"measurement": "Activity", "setting": "[21]", "result": "Non-Toxic"},
      {"measurement": "remaining at 2 h, 100 ug/ml", "setting": "[22]", "result": 51, "unit": "%"},
      {"measurement": "remaining at 10 min, 100 ug/ml", "setting": "[23]", "result": 90, "unit": "%"},
      {"measurement": "Activity", "setting": "[24]", "result": "Non-Toxic"},
      {"measurement": "remaining at 1 h, 100 ug/ml", "setting": "[25]", "result": 60, "unit": "%"},
      {"measurement": "Activity", "setting": "HUVEC [26]", "result": "Non-Toxic"},
      {"measurement": "Activity", "setting": "A549 [27]", "result": "Active"},
      {"measurement": "Activity", "setting": "HUVEC [28]", "result": "Dose-Dependent Effect"},
      {"measurement": "Cmax", "setting": "[29]", "result": 7.06, "unit": "µM"}
    ]}
  ]
}
